Data taken from patent US6399542B1, “Alkoxyimino-substituted bicyclic compounds compositions containing the same and method of making such compounds” (Agro-Kanesho Co., Ltd., priority 1997, dated 2002).
Where two headings read alike, the source gives them in different places.

Tests used:
[1] = test system: Psecidoperonospora cubensis; assay: Effect on Cucumber downy mildew (preventive spray test); assay type: in vivo; conditions: 7 days after inoculation
Phytophthora infestans = assay type: in vivo; conditions: Tomato late blight, 5 days after inoculation
Erysiphe graminis = assay: Effects on Barley powdery mildew (preventive spray test); assay type: in vivo; conditions: lesions counted seven days after inoculation
Chochliobolus miyabeanus = assay: Effect on Rice brown spot (preventive spray test); assay type: in vivo; conditions: 7 days after inoculation
Pyricularia oryzae = assay type: in vivo; conditions: Rice blast, 7 days after inoculation
Puccinia recondita = assay: Effect on Wheat brown rust (preventive spray test); assay type: in vivo; conditions: 7 days after inoculation
Rhizoctonia solani = assay: Effect on Rice sheath blight (preventive spray test); conditions: 10 days after inoculation
Botrytis cinerea = assay: Effect on Cucumber gray mold (cotyledon paper disc test); assay type: in vivo; conditions: 3 days after inoculation
[2] = conc. of active ingredient 4 ppm
[3] = conc. of active ingredient 20 ppm
[4] = conc. of active ingredient 100 ppm

SMILES | Preventive rate (%) [1, 2] | Preventive rate (%) [1, 3] | Preventive rate (%) [1, 4] | Preventive rate (%) (Phytophthora infestans; [3]) | Preventive rate (%) (Phytophthora infestans; [4]) | Preventive rate (%) (Erysiphe graminis; [3]) | Preventive rate (%) (Erysiphe graminis; [4]) | Preventive rate (%) (Chochliobolus miyabeanus; [3]) | Preventive rate (%) (Chochliobolus miyabeanus; [4]) | Preventive rate (%) (Pyricularia oryzae; [3]) | Preventive rate (%) (Pyricularia oryzae; [4]) | Preventive rate (%) (Puccinia recondita; [2]) | Preventive rate (%) (Puccinia recondita; [3]) | Preventive rate (%) (Puccinia recondita; [4]) | Preventive rate (%) (Rhizoctonia solani; [3]) | Preventive rate (%) (Rhizoctonia solani; [4]) | Preventive rate (%) (Erysiphe graminis; [2]) | Preventive rate (%) (Botrytis cinerea; [3]) | Preventive rate (%) (Botrytis cinerea; [4]) | also measured
CCCON=C1COc2c1ccc(OCc1ccccc1/C(=N\OC)C(=O)NC)c2C [a-42] | 100% | 100% | 100% | 98% | 98% | 88% | 100% | 85% | 91% | 90% | 98% | 100% | 100% | 100% |  |  |  |  |  | 
CCON=C1COc2c1ccc(OCc1ccccc1/C(=N\OC)C(=O)NC)c2C [a-36] |  | 100% | 100% | 91% | 98% |  |  | 93% | 96% | 90% | 99% | 100% | 100% | 100% |  |  |  |  |  | Preventive rate (%) (Chochliobolus miyabeanus; [2]): 69%
CCc1c(OCc2ccccc2C(=NOC)C(=O)NC)ccc2c1OCCC2=NOC [c-30] |  |  |  |  |  | 100% | 100% |  |  | 100% | 100% | 100% | 100% | 100% | 56% | 98% | 95% |  |  | 
CON=C1c2ccc(OCc3ccccc3/C(=N\OC)C(=O)OC)c(C)c2OC1C (stereo not drawn) [b-6] |  | 100% | 100% | 92% | 94% | 89% | 90% | 70% | 90% | 84% | 88% |  |  |  |  |  |  |  |  | 
CON=C(C(=O)OC)c1ccccc1COc1ccc2c(c1)OCCC2=NOC [c-4] |  | 94% | 100% | 97% | 97% |  |  | 80% | 80% | 86% | 90% |  |  | 100% | 53% | 98% |  |  |  | 
CNC(=O)C(=NOC)c1ccccc1COc1cc2c(cc1C)C(=NOC)CCO2 [c-27] | 86% | 93% | 96% | 98% | 100% | 100% | 100% |  |  | 95% | 100% | 96% | 100% | 100% | 93% | 94% | 100% |  |  | 
COC=C(C(=O)OC)c1ccccc1COc1ccc2c(c1C)C(C)CC2=NOC (racemic) [f-5] | 99% | 100% | 100% | 100% | 100% | 100% | 100% | 94% | 98% | 89% | 94% | 100% | 100% | 100% |  |  | 97% |  |  | Preventive rate (%) (Phytophthora infestans; [2]): 92%; Preventive rate (%) (Chochliobolus miyabeanus; [2]): 53%; Preventive rate (%) (Pyricularia oryzae; [2]): 72%
CCON=C1COc2c1ccc(OCc1ccccc1/C(=N\OC)C(=O)OC)c2C [a-35] |  |  |  |  |  | 100% | 100% |  |  |  |  |  |  |  | 80% | 84% | 98% |  |  | 
CNC(=O)C(=NOC)c1ccccc1COc1ccc2c(c1C)OCCC2=NOC [c-16] |  |  |  | 100% | 100% | 100% | 100% |  |  | 91% | 100% |  | 100% | 100% |  |  |  | 49% | 60% | Preventive rate (%) (Phytophthora infestans; [2]): 84%
CON=C1COc2c1ccc(OCc1ccccc1/C(=N\OC)C(=O)OC)c2C [a-15] |  |  |  | 81% | 94% |  |  |  |  |  |  | 96% | 96% | 100% |  |  |  | 73% | 96% | 
CNC(=O)/C(=N/OC)c1ccccc1COc1ccc2c(c1C)OC(C)C2=NOC (stereo not drawn) [b-7] | 89% | 93% | 96% | 95% | 100% | 100% | 100% | 95% | 96% | 89% | 100% | 99% | 100% | 100% | 86% | 98% | 99% |  |  | Preventive rate (%) (Chochliobolus miyabeanus; [2]): 56%
CNC(=O)C(OC)c1ccccc1COc1ccc2c(c1)OCC2=NOC (racemic) [a-11] |  |  |  |  |  | 88% | 100% |  |  |  |  |  | 88% | 100% |  |  |  | 40% | 87% | 
CNC(=O)/C(=N/OC)c1ccccc1COc1ccc2c(c1)OCC2=NOC/C=C/Cl [a-63] |  | 100% | 100% |  |  | 100% | 100% |  |  |  |  |  |  |  |  |  | 99% | 100% | 100% | 
CNC(=O)C(=NOC)c1ccccc1COc1ccc2c(c1C)OCCC2=NOCc1c(F)c(F)c(F)c(F)c1F [c-83] |  |  |  |  |  | 96% | 100% |  |  |  |  | 95% | 100% | 100% | 79% | 81% |  |  |  | 
CON=C1COc2cc(OCc3ccccc3/C(=N\OC)C(=O)OC)c(C)cc21 [a-26] |  | 100% | 100% | 81% | 100% |  |  |  |  |  |  | 100% | 100% | 100% |  |  |  | 72% | 87% | 
C#CCON=C1COc2c1ccc(OCc1ccccc1/C(=N\OC)C(=O)NC)c2C [a-71] | 100% | 100% | 100% |  |  | 100% | 100% |  |  | 89% | 91% | 100% | 100% | 100% |  |  |  | 100% | 100% | 
COC=C(C(=O)OC)c1ccccc1COc1ccc2c(c1)OCC2=NOC [a-2] |  | 100% | 100% | 97% | 100% | 79% | 100% | 93% | 96% | 95% | 97% | 98% | 100% | 100% |  |  |  |  |  | Preventive rate (%) (Phytophthora infestans; [2]): 97%
CNC(=O)C(=NOC)c1ccccc1COc1ccc2c(c1C)OC(C)CC2=NOC (racemic) [d-11] | 93% | 96% | 100% |  |  | 99% | 99% |  |  | 78% | 95% | 100% | 100% | 100% | 75% | 96% |  |  |  | Preventive rate (%) (Pyricularia oryzae; [2]): 68%
CNC(=O)/C(=N/OC)c1ccccc1COc1ccc2c(c1)OCC2=NOC(C)C [a-40] |  | 97% | 100% |  |  |  |  |  |  |  |  |  | 97% | 100% |  |  |  | 100% | 100% | 
CON=C(C(=O)OC)c1ccccc1COc1ccc2c(c1C)OCCC2=NOC [c-15] | 81% | 100% | 100% | 94% | 100% | 100% | 100% | 97% | 100% | 80% | 100% |  | 100% | 100% |  |  | 100% | 75% | 77% | Preventive rate (%) (Phytophthora infestans; [2]): 84%
